Measured values published in patent US6548235B2, “Stabilized solution of an alkali metal or alkaline earth metal salt of p-phenylenediamine color developer and method of making same” (Eastman Chemical Company, priority 2000, dated 2003).
Each block holds one compound with its values, some of them ahead of it.

Assays:
Format in all cases: physicochemical
[1] = Product solution of CD-3 free base sodium salt after solvent exchange, observed at ambient temperature; details: Example 53, nominally 23% in water after distilling 2-propanol, contains DEHA
Method: A 425 gram autoclave solution containing 23.2% CD-3 free base, 2.5% DEHA in 268 g of 2-propanol, and 47 g of water was added to a two-liter flask equipped with an overhead agitator, temperature probe, addition funnel, condenser with take-off provision, and nitrogen blanketing. Water (275 g) and 30 g of 50% aqueous sodium hydroxide were added to the flask. The mixture was distilled at a vapor temperature of approximately 85° C.

[2] = Saturation solubility of CD-3 free base in solvents and solvent/water mixtures; details: 3% DEHA, ambient temperature
Method: The solubility of the free base form of color developers CD-3 in a number of potential solvents was determined. Representative solvents were selected from each of the different classes of solvents: alcohols, glycols and glycol ethers. A small quantity of a representative preservative, 3% of N,N-diethylhydroxylamine (DEHA), was added. Excess dry color developer free base (CD-3) was added to each solvent and saturation was achieved by mixing for several hours at room temperature. […] In Table I, Solvent:Water refers to the weight:weight, solvent:water ratio when water was included, CD Free Base Concentration refers to the weight percent saturation concentration of CD-3, and PEG 200 and PEG 300 refers to poly(ethylene glycol) having an average molecular weight of 200 or 300.

[3] = Saturation solubility of CD-3 free base in solvent/water/sodium hydroxide systems; details: 3 weight percent DEHA, ambient temperature, HPLC
Method: Because CD-3 free base can be converted to its metal salt by treatment with a sufficiently strong base such as an alkali metal or alkaline earth metal hydroxide, carbonate, alkoxide or hydride, the solubility of CD-3 free base in solvent systems in combination with water and base was measured to determine if enhanced solubility could be obtained. The saturation concentration in weight percent again was determined by the techniques of both HPLC and NMR. Selected solvents were combined with water and an alkali metal hydroxide (sodium hydroxide), with each sample containing a small quantity (3 weight percent) of a representative preservative (DEHA). Excess, dry CD-3 free base was added to each combination solvent system and saturation was achieved by mixing for several hours at ambient temperature.

Solution behaviour of final product solution [1]: remained in solution
Compound: CCN(CC[N-]S(C)(=O)=O)c1ccc(N)c(C)c1.[Na+] [CD-3 free base sodium salt]

CD Free Base Conc. (saturation concentration) ([2]; Example 1, 2-Isopropoxyethanol): 8.6 weight percent
CD Free Base Conc. (saturation concentration) ([2]; Example 2, 2-Methyl-1,3-Propanediol): 3.3 weight percent
CD Free Base Conc. (saturation concentration) ([2]; Example 3, 3-Methoxy-1-Butanol): 9.3 weight percent
CD Free Base Conc. (saturation concentration) ([2]; Example 4, PEG-200): 16.9 weight percent
CD Free Base Conc. (saturation concentration) ([2]; Example 5, PEG-300): 16.7 weight percent
CD Free Base Conc. (saturation concentration) ([2]; Example 6, Diethylene Glycol): 15.2 weight percent
CD Free Base Conc. (saturation concentration) ([2]; Example 7, Methanol): 23.6 weight percent
CD Free Base Conc. (saturation concentration) ([2]; Example 8, Methanol/Water 90:10 w:w): 18.9 weight percent
CD Free Base Conc. (saturation concentration) ([2]; Example 9, Methanol/Water 50:50 w:w): 6.8 weight percent
CD Free Base Conc. (saturation concentration) ([2]; Example 10, Methanol/Water 10:90 w:w): 0.7 weight percent
CD Free Base Conc. (saturation concentration) ([2]; Example 11, Ethanol): 5.4 weight percent
CD Free Base Conc. (saturation concentration) ([2]; Example 12, Ethanol/Water 90:10 w:w): 9.7 weight percent
CD Free Base Conc. (saturation concentration) ([2]; Example 13, Ethanol/Water 50:50 w:w): 9.0 weight percent
CD Free Base Conc. (saturation concentration) ([2]; Example 14, Ethanol/Water 10:90 w:w): 0.6 weight percent
CD Free Base Conc. (saturation concentration) ([2]; Example 15, 2-Propanol): 1.8 weight percent
CD Free Base Conc. (saturation concentration) ([2]; Example 16, 2-Propanol/Water 90:10 w:w): 7.8 weight percent
CD Free Base Conc. (saturation concentration) ([2]; Example 17, 2-Propanol/Water 50:50 w:w): 9.2 weight percent
CD Free Base Conc. (saturation concentration) ([2]; Example 18, 2-Propanol/Water 10:90 w:w): 0.8 weight percent
CD Free Base Conc. (saturation concentration) ([3]; Example 19, 2-Isopropoxyethanol/Water/NaOH 63:34:3 w): 22.9 weight percent
CD Free Base Conc. (saturation concentration) ([3]; Example 20, 2-Methyl-1,3-Propanediol/Water/NaOH 63:34:3 w): 19.0 weight percent
CD Free Base Conc. (saturation concentration) ([3]; Example 21, 3-Methoxy-1-Butanol/Water/NaOH 63:34:3 w): 21.3 weight percent
CD Free Base Conc. (saturation concentration) ([3]; Example 22, PEG-200/Water/NaOH 63:34:3 w): 19.5 weight percent
CD Free Base Conc. (saturation concentration) ([3]; Example 23, PEG-300/Water/NaOH 63:34:3 w): 19.2 weight percent
CD Free Base Conc. (saturation concentration) ([3]; Example 24, Diethylene Glycol/Water/NaOH 63:34:3 w): 15.1 weight percent
CD Free Base Conc. (saturation concentration) ([3]; Example 26, 2-Methyl-1,3-Propanediol/Water/NaOH 61:33:6 w): 23.2 weight percent
CD Free Base Conc. (saturation concentration) ([3]; Example 27, 3-Methoxy-1-Butanol/Water/NaOH 61:33:6 w): 26.4 weight percent
CD Free Base Conc. (saturation concentration) ([3]; Example 28, PEG-200/Water/NaOH 61:33:6 w): 23.5 weight percent
CD Free Base Conc. (saturation concentration) ([3]; Example 29, PEG-300/Water/NaOH 61:33:6 w): 20.8 weight percent
CD Free Base Conc. (saturation concentration) ([3]; Example 30, Diethylene Glycol/Water/NaOH 61:33:6 w): 21.9 weight percent
CD Free Base Conc. (saturation concentration) ([3]; Example 31, Water/NaOH 93.5:6.5 w): 25.1 weight percent
CD Free Base Conc. (saturation concentration) ([3]; Example printed 24 (second), 2-Isopropoxyethanol/Water/NaOH 61:33:6 w): 21.9 weight percent
Compound: CCN(CCNS(C)(=O)=O)c1ccc(N)c(C)c1 [CD-3 free base, 4-amino-3-methyl-N-ethyl-N-(2-methanesulfonamidoethyl)aniline]
